# Activity calls are given as the source filed them.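 Rule for the calls: active = compounds giving half or more protection of infected cells from virus-caused growth loss, again on retest; inactive = the rest.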
# Test system: CEM cells HIV-1 protection, formazan growth assay
# Assay: NCI AIDS Antiviral Assay
# Conditions: for IC50: measured here: growth of uninfected CEM cells
# Summary of the method: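 Screen of anti-HIV-1 activity in human CEM cells using a formazan-based growth measurement at five drug concentrations. Hits with 50% or greater protection were repeated, and confirmation required reproducible complete protection.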
Structure (SMILES),EC50,IC50,outcome
CCOC(=O)Cc1c(Cc2[nH]c(C(=O)OCc3ccccc3)c(CC(=O)OCC)c2CC(=O)OCC)[nH]c(C(=O)OCc2ccccc2)c1CC(=O)OCC,> 5.01 µM,> 5.01 µM,
O=C1C=CC2CCC1C2 (stereo not drawn),,,inactive
CCOC(=O)CCN1C(=O)C(=O)N(c2ccc(OC)cc2)C1=S,> 200 µM,31.6 µM,
CN1c2ccccc2N(C(=O)c2ccccc2)C(CC(=O)O)c2cccn21 (stereo not drawn),> 692 µM,288 µM,
O=[N+]([O-])/C=C/COCc1cc2c(cc1Br)OCO2,> 200 µM,9.33 µM,
O=C(O)C1(c2ccccc2)CCCNCC1 (stereo not drawn),> 6170 µM,> 6170 µM,
O=C1CN2C(c3ccccc3)=NN(c3ccc([N+](=O)[O-])cc3)C2(c2ccccc2)c2cc(Cl)ccc2N1CC1CC1 (stereo not drawn),> 100 µM,> 100 µM,
COCO[C@@H]1C[C@H]2C(=O)N(COC)c3ccccc3C(=O)N2C1,> 200 µM,> 200 µM,
CCCCc1ccc(Nc2ncc3ncn(COCCO)c3n2)cc1,> 200 µM,51.3 µM,
Cc1cccc(/C=N/NC(=S)Nc2ccc(Cl)cc2)n1,> 200 µM,3.16 µM,
NC(=S)N/N=C/c1cc2c3c(c1)CCCN3CCC2,> 200 µM,> 200 µM,
CN1c2ccccc2C2=C(C(=O)CCS2)S1(=O)=O,> 35.5 µM,> 35.5 µM,
CSC(=NCCN=C(NS(=O)(=O)c1ccc(Cl)cc1)SC)NS(=O)(=O)c1ccc(Cl)cc1,> 200 µM,> 200 µM,
CC(=O)C(/C=N\C(N)=S)=C(\C)O,> 200 µM,> 200 µM,
CCOC(=O)c1ccc(N=[N+]([O-])c2ccc(C(=O)OCC)cc2)cc1,> 100 µM,> 100 µM,
COc1ccc(C2OCC3OC(n4cc(C)c(=O)[nH]c4=O)CC3N2O)cc1 (stereo not drawn),> 200 µM,> 200 µM,
O=c1cc(-c2ccccc2)oc2cc(OCCSCCCCCCCCCCSCCOc3ccc4c(=O)cc(-c5ccccc5)oc4c3)ccc12,> 1.95 µM,> 1.95 µM,
CC1(C)OC[C@H](COCOP2(=O)Oc3ccc4ccccc4c3-c3c(ccc4ccccc34)O2)O1,> 200 µM,34.7 µM,
O=C1/C(=C/c2ccc(O)cc2)Oc2cc(O)ccc21,> 204 µM,66.1 µM,
COc1cc(CNc2ccc(C(C)C)cc2)cc(OC)c1OC,> 74.1 µM,31.6 µM,
COc1cc(CNC2c3cc4c(cc3C(c3cc(OC)c(OC)c(OC)c3)[C@H]3C(=O)OCC23)OCO4)cc(OC)c1OC (stereo partly drawn),,,inactive

Structure (SMILES),EC50,IC50,outcome
O=C(c1cccc([N+](=O)[O-])c1)c1c(O)c2ccccc2oc1=O,> 200 µM,95.5 µM,
CCOC(=O)CCSS(=O)(=O)c1ccccc1,> 200 µM,35.5 µM,
COC(=O)c1ccc(CCC2=CC(=O)C=CC2=O)cc1,> 200 µM,7.59 µM,
Cc1ccc(Cc2cc(N3CCN(c4cccc(Cl)c4)CC3)nnc2C)cc1,> 100 µM,16.6 µM,
CCCCCCCCCCCCN1C(=O)c2ccccc2[Se]1=O (stereo not drawn),> 2.75 µM,> 2.75 µM,
CCCC(=O)N1CCN(c2ccc3c(c2)OC(C)O3)CC1 (stereo not drawn),> 200 µM,> 200 µM,
CN(C)S(=O)(=O)C(c1ccccc1)C1(O)CCCCC1 (stereo not drawn),> 437 µM,> 437 µM,
CO/C(CO)=C1\CC2(OC1=O)[C@@H]1O[C@@H]1C1(O)[C@H]3C(=O)O[C@@H]([C@@H](OC)C21C)[C@@]3(O)C(C)C (stereo partly drawn),> 407 µM,> 407 µM,
Cc1ccccc1C1CC(c2ccccc2)=NO1 (stereo not drawn),> 57.5 µM,> 57.5 µM,
COC(=O)c1c(C)cccc1C1CN=NC12Cc1c(C)cccc1C2=O (stereo not drawn),36.3 µM,72.4 µM,
O=[N+]([O-])c1ccccc1SSc1ccccc1[N+](=O)[O-],> 12.3 µM,7.41 µM,inactive
NNc1ncnc(NN)c1Br,> 200 µM,56.2 µM,
C=CCOCCCCC(C(C)=O)C(=O)OC (stereo not drawn),> 251 µM,> 251 µM,
O=c1c2cc(S(=O)(=O)Nc3ccccc3)ccc2ncn1NS(=O)(=O)c1ccccc1,> 100 µM,58.9 µM,
O=c1c2ccccc2oc2ccccc12.[Cl][Hg][Cl],> 11.2 µM,> 11.2 µM,
COC(=O)C(Cc1c[nH]c2ccccc12)NP(=O)(O)OCC1OC(n2ccc(N)nc2=O)C(O)C1O (stereo not drawn),> 200 µM,5.25 µM,
COC(=O)C1(C(=O)OC)CCCC2=NOC3CCC1C23 (stereo not drawn),> 891 µM,575 µM,
O=C1/C(=C\c2cccc(Oc3ccccc3)c2)SC(c2ccccc2)N1c1ccccc1 (stereo not drawn),> 20 µM,0.0933 µM,
N#Cc1c(N=C/C=C/c2ccccc2)c(C(=O)Nc2ccccc2)n2c1CCCC2,> 200 µM,> 200 µM,
C=CCSCn1ncc2ccc([N+](=O)[O-])cc21,> 200 µM,33.9 µM,
Cc1ccc(N=NN(C)C)cc1NC(=O)NCC(=O)OC(C)(C)C,> 200 µM,107 µM,

# — PubChem BioAssay AID179 (DTP/NCI, 2004)
